Results on 2 molecules are retold here after patent US11524938B2, “Aromatic sulfonamide derivatives” (Bayer Pharma Aktiengesellschaft, priority 2016, dated 2022).

Test [1] deals with T1, human P2X4 (Homo sapiens, UniProt Q99571).
T1 sequence (Q99571 1-388): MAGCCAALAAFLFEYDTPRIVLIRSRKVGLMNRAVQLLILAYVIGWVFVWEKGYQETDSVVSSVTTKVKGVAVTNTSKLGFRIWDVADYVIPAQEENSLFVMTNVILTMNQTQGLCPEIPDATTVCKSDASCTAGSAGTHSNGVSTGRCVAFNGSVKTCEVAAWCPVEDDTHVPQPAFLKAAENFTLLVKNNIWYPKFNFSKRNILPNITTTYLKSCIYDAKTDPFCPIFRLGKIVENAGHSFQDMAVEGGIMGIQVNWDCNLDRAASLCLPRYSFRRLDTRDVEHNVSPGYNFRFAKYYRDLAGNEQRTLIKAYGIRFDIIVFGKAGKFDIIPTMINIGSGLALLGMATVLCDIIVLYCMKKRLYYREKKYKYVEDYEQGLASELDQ
Nature of the test: Human P2X4 HEK Cell FLIPR Assay. The conditions noted are these: HEK293, HEK293 cells, agonist Bz-ATP at EC80; percentage of maximal inhibition; read-out: Human P2X4 HEK Cells (FLIPR Assay) avg Efficacy [%]. The format is cell-based. An outline of the steps:
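Calcium flux read by FLIPR for 120 sec after Bz-ATP challenge at EC80 (established each assay day), following 30 min room-temperature compound preincubation in dye-loaded stable human P2X4 HEK293 cells. Peak RFU over basal normalized to agonist control; IC50, maximal inhibition and Hill coefficient from triplicate means.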

Test [2] concerns C57BL/6 mice. Nature of the test: CFA Inflammation Model in Mice with Pain Behaviour Read Out. The format is in vivo, mouse. The conditions noted are these: oral 0.3, 1, 3 mg/kg, day 2 post-CFA, 1 h after treatment, vs vehicle. The protocol:
Wild type female C57BL/6 mice (Taconic) received intraplantar injection of complete Freund's adjuvant (CFA) (30 μL, 1 mg/mL, Sigma) into the left hind paw under isoflurane anesthesia. Animals were administered orally with example 326 (0.3, 1, and 3 mg/kg, n=10/group) on day 2 post-CFA injection. Spontaneous pain-related behavior in freely moving animals was assessed using the automated dynamic weight bearing device (DWB, Bioseb, France) one hour after compound treatment according to published and validated protocols (Robinson et al., 2012; Tetreault et al., 2011; Gruen et al. 2014). For behavioral testing, the animal was placed inside a Plexiglas chamber in which the exerted pressure on the floor was measured. The animals were allowed to move freely within the apparatus for 5 min and subsequently pain behavior is recorded for a test period of another 5 min. The relative weight distribution is calculated by determining the ratio of the weight put on naïve (contralateral) vs. that put on the intraplantar CFA treated (ipsilateral) paws.
FIG. 3 as nonbinding explanatory example of compounds according to the invention represents the ratio of weight distribution in percent (y-axis) of mice orally treated with example 326 or vehicle 1 hour prior to weight distribution measurement. Each symbol represents the relative weight distribution for one mouse. […]

Consider `N#Cc1cnn(-c2ccc(NC(=O)Cc3ccccc3Cl)cc2S(N)(=O)=O)c1` [Example 39, 2-(2-Chlorophenyl)-N-[4-(4-cyano-1H-pyrazol-1-yl)-3-sulfamoylphenyl]acetamide], for which the Emax in test [1] is 96%.
For the molecule `NS(=O)(=O)c1cc(NC(=O)Cc2ccccc2Cl)ccc1-c1cnn(C(F)F)c1` [Example 326, 2-(2-Chlorophenyl)-N-{4-[1-(difluoromethyl)-1H-pyrazol-4-yl]-3-sulfamoylphenyl}acetamide], the Emax in test [1] stood at 95%. In test [2], the “pain behavior (relative weight distribution, dynamic weight bearing)” value was “significantly reduced pain behavior”.
